Measured values: patent US6831083B2, “Pyrazoline derivative or tetrahydropyridazine derivative and medicinal use thereof” (Mitsui Chemicals, Inc., priority 2000, dated 2004)
Marks after values point to notes of the source that are not given here.

Experiments:
rat GLT-1 = molecular target: T1, rat GLT-1 (Rattus norvegicus, UniProt P31596); experiment: Activating action for glia type glutamic acid transporter (GLT-1): [3H]-glutamate intake in COS-7 cells; type: cell-based; conditions: test compound 100 μM, treated from 1 hour before [3H]-glutamate (2 μM), 3 min uptake; COS-7 cells expressing rat GLT-1; percentage relative to solvent-treated group
T1 construct: expressed in transfected cells; host or cells: COS-7 cells
Protocol: Test Example 1 Activating Action for Glia Type Glutamic Acid Transporter (GLT-1)
Activating action for GLT-1 was evaluated by a test using COS-7 cells into which rat GLT-1 had been introduced. To COS-7 cells capable of expressing GLT-1 was added a [^3H]-glutamate-containing KRH solution (200 μl, final concentration: 2 μM). 3 minutes later, the ^3H amount was measured using a scintillation counter. A test compound (100 μM) was dissolved in the KRH solution and a treatment was conducted from 1 hour before the addition of [^3H]-glutamate. The action of the test compound for intake of glutamic acid was expressed as a percentage relative to the glutamic acid intake ability of solvent-treated group.
Glutamic acid intake (%)=[test compound (dpm)/control (dpm)]×100
This test was conducted based on a method by Shimada et al. [Eur. J. Pharmacol., 386, 263-270 ([…])].

[1] = tested on: rat models of middle cerebral artery obstruction; experiment: Action for cerebral infarct caused by middle cerebral artery obstruction in rat; type: in vivo; conditions: male SD rats, left MCA obstruction, brain taken 24 hours after obstruction, TTC
Protocol: Test Example 2 Action for Cerebral Infarct Caused by Middle Cerebral Artery Obstruction in Rat
Preparation of rat models having middle cerebral artery obstruction was conducted according to a method of Tamura et al. [J. Cerebral Blood Flow and Metabolism, 53-60 (1981)]. Specifically, 9 to 10 week-old male SD strain rats were used and their left middle cerebral arteries were obstructed under anesthesia by […] halosen. The compound of Example 5 or 26 was used as a test compound. The compound of Example 5 was intravenously administered in a dosage of 10 mg/kg for 24 hours from right after the obstruction; and the compound of Example 26 was intraperitoneally administered in a dosage of 50 mg/kg right after the obstruction and 6 hours after the obstruction. The brain of each rat was taken out 24 hours after the obstruction of rat middle cerebral artery, was divided into 6 parts, and was dyed with TTC. The section of each dyed part was photographed, and the focus of cerebral infarct was measured using an image analyzer. The rats in control group were as well subjected to middle cerebral artery obstruction.

ddy mice = experiment: Toxicity test in ddy mice; type: in vivo; conditions: 100 mg/kg (i. p.), 24 hours after administration
Protocol: Test Example 3 Toxicity Test
A test compound was administered into ddy mice to investigate its toxicity. The test compound was intraperitoneally administered in a dosage of 100 mg/kg; the mortality rate of the mice 24 hours after the administration was examined; and the toxicity of the test compound was evaluated from the mortality rate.

T1 sequence (P31596 whole entry): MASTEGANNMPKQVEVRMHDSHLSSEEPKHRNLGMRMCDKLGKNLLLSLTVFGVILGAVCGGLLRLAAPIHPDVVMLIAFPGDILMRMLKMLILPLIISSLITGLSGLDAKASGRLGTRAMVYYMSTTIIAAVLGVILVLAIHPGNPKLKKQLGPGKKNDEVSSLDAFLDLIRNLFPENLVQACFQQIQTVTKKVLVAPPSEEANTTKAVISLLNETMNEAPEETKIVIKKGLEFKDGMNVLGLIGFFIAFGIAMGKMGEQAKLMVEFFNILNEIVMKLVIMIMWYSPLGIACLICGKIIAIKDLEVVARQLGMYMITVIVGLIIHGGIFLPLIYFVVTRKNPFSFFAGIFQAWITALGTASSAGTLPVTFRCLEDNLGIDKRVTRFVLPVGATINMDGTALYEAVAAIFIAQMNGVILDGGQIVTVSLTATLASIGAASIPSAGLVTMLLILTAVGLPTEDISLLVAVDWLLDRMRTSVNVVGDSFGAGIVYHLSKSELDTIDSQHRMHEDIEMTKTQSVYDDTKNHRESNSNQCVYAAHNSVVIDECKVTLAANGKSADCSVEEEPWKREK

Compound | Glutamic acid intake (%) (rat GLT-1) | melting point | further results
O=C(c1cccnc1)N1CCC(c2ccccc2Cl)=N1 [Example 12, 1-nicotinoyl-3-(2-chlorophenyl)-2-pyrazoline] | 134% |  | 
Cc1ccccc1C1=NN(C(=O)c2cccnc2)CC1 [Example 21, 1-nicotinoyl-3-(2-methylphenyl)-2-pyrazoline] | 129% |  | 
O=C(c1cccnc1)N1CC2COc3cc(Cl)ccc3C2=N1 (stereo not shown) [Example 31, 2-nicotinoyl-7-chloro-3,3a-dihydro-2H,4H-[1]-benzopyrano[4,3-c]pyrazole] | 125% |  | 
CCOc1ccccc1C1=NN(C(=O)c2cccnc2)CC1 [Example 18, 1-nicotinoyl-3-(2-ethoxyphenyl)-2-pyrazoline] |  | 155 to 157 °C | 
CS(=O)(=O)O.O=C(c1cccnc1)N1CCC(c2ccccc2)=N1 [Example 5, 1-nicotinoyl-3-phenyl-2-pyrazoline methanesulfonate] | 145% |  | Focus of cerebral infarct (mm^3) ([1]; 10 mg/kg intravenously for 24 hours from right after obstruction, control group 224.4 ± 71.5): 131.7 ± 51.6** mm^3; Mortality rate (%) (ddy mice): 0%
COc1ccccc1C1=NN(C(=O)c2cccnc2)CC1C (stereo not shown) [Example 15, 1-nicotinoyl-3-(2-methoxyphenyl)-4-methyl-2-pyrazoline] | 134% | 124 to 125 °C | 
O=C(c1cccnc1)N1CCC(c2ccc(Cl)cc2)=N1 [Example 10, 1-nicotinoyl-3-(4-chlorophenyl)-2-pyrazoline] | 135% |  | 
COc1ccc(C2=NN(C(=O)c3cccnc3)CC2)c(OC)c1 [Example 16, 1-nicotinoyl-3-(2,4-dimethoxyphenyl)-2-pyrazoline] | 126% | 112 to 113 °C | 
CCOc1ccc(C2=NN(C(=O)c3cccnc3)CC2)cc1 [Example 17, 1-nicotinoyl-3-(4-ethoxyphenyl)-2-pyrazoline] | 129% | 124 to 125 °C | 
Cc1ccc(C2=NN(C(=O)c3cccnc3)CC2)cc1 [Example 19, 1-nicotinoyl-3-(4-methylphenyl)-2-pyrazoline] | 131% | 100 to 102 °C | 
O=C(c1cccnc1)N1CCC(c2ccccc2C(F)(F)F)=N1 [Example 23, 1-nicotinoyl-3-(2-trifluoromethylphenyl)-2-pyrazoline] | 128% |  | 
COc1ccccc1C1=NN(C(=O)c2cccnc2)CC1 [Example 14, 1-nicotinoyl-3-(2-methoxyphenyl)-2-pyrazoline] | 124% | 130 to 132 °C | 
Cc1ccc(C2=NN(C(=O)c3cccnc3)CC2)c(C)c1 [Example 22, 1-nicotinoyl-3-(2,4-dimethylphenyl)-2-pyrazoline] |  | 102 to 104 °C | 
O=C(c1cccnc1)N1CCC(c2ccc(Br)cc2)=N1 [Example 9, 1-nicotinoyl-3-(4-bromophenyl)-2-pyrazoline] | 138% |  | 
O=C(c1cccnc1)N1CCCC(c2ccccc2)=N1 [Example 1, 1-nicotinoyl-3-phenyl-1,4,5,6-tetrahydropyridazine] | 136% |  | 
COc1ccc(C2=NN(C(=O)c3cccnc3)CC2)cc1 [Example 13, 1-nicotinoyl-3-(4-methoxyphenyl)-2-pyrazoline] | 129% | 132 to 134 °C | 
O=C(c1cccnc1)N1CC2COc3ccccc3C2=N1 (stereo not shown) [Example 26, 2-nicotinoyl-3,3a-dihydro-2H,4H-[1]-benzopyrano[4,3-c]pyrazole] | 131% |  | Focus of cerebral infarct (mm^3) ([1]; 50 mg/kg intraperitoneally right after and 6 hours after obstruction, control group 188.0 ± 54.8): 135.9 ± 30.5* mm^3; Mortality rate (%) (ddy mice): 0%
O=C(c1cnccn1)N1CC2CS(=O)(=O)c3ccccc3C2=N1 (stereo not shown) [Example 42, 2-(2-pyrazinoyl)-3,3a-dihydro-2H,4H-[1]-benzothiopyrano-[4,3-c]pyrazole-S-dioxide] | 125% |  | 
O=C(c1cccnc1)N1CCC(c2ccc([N+](=O)[O-])cc2)=N1 [Example 24, 1-nicotinoyl-3-(4-nitrophenyl)-2-pyrazoline] | 130% | 175 to 177 °C | 
O=C(c1cccnc1)N1CCC(c2cccc(Cl)c2)=N1 [Example 11, 1-nicotinoyl-3-(3-chlorophenyl)-2-pyrazoline] | 140% | 124 to 126 °C | 
O=C(c1cccnc1)N1CCC(c2ccc(F)cc2)=N1 [Example 7, 1-nicotinoyl-3-(4-fluorophenyl)-2-pyrazoline] | 143% | 128 to 130 °C | 
O=C(c1cnccn1)N1CC2CSc3ccccc3C2=N1 (stereo not shown) [Example 40, 2-(2-pyrazinoyl)-3,3a-dihydro-2H,4H-[1]-benzothiopyrano-[4,3-c]pyrazole] |  | 190 to 192 °C | 
Cc1cccc(C2=NN(C(=O)c3cccnc3)CC2)c1 [Example 20, 1-nicotinoyl-3-(3-methylphenyl)-2-pyrazoline] | 134% | 99 to 100 °C | 
O=C(c1cccnc1)N1CCC(c2ccccc2F)=N1 [Example 8, 1-nicotinoyl-3-(2-fluorophenyl)-2-pyrazoline] | 134% |  | 
O=C(c1cnccn1)N1CCCC(c2ccccc2)=N1 [Example 2, 1-(2-Pyrazinoyl)-3-phenyl-1,4,5,6-tetrahydropyridazine] | 126% |  | 
O=C(c1cccnc1)N1CCC(c2ccccc2[N+](=O)[O-])=N1 [Example 25, 1-nicotinoyl-3-(2-nitrophenyl)-2-pyrazoline] |  | 123 to 125 °C | 
